Consider 4 molecules from PMC7026418, “The kinase polypharmacology landscape of clinical PARP inhibitors” (Scientific Reports, 2020).

What all share (test): biochemical
Design in all cases: DiscoveRx KINOMEscan active site-directed competition binding; percent of control kinase bound to immobilised ligand

For one assay, the target named is RAF1 (Homo sapiens, UniProt P04049).
The target in the next assay is CSNK2A1 (Homo sapiens, UniProt P68400).
Another assay has as its target T1, FLT3(K663Q) (Homo sapiens, UniProt P36888, K663Q).
T1 sequence (P36888 1-993 K663Q): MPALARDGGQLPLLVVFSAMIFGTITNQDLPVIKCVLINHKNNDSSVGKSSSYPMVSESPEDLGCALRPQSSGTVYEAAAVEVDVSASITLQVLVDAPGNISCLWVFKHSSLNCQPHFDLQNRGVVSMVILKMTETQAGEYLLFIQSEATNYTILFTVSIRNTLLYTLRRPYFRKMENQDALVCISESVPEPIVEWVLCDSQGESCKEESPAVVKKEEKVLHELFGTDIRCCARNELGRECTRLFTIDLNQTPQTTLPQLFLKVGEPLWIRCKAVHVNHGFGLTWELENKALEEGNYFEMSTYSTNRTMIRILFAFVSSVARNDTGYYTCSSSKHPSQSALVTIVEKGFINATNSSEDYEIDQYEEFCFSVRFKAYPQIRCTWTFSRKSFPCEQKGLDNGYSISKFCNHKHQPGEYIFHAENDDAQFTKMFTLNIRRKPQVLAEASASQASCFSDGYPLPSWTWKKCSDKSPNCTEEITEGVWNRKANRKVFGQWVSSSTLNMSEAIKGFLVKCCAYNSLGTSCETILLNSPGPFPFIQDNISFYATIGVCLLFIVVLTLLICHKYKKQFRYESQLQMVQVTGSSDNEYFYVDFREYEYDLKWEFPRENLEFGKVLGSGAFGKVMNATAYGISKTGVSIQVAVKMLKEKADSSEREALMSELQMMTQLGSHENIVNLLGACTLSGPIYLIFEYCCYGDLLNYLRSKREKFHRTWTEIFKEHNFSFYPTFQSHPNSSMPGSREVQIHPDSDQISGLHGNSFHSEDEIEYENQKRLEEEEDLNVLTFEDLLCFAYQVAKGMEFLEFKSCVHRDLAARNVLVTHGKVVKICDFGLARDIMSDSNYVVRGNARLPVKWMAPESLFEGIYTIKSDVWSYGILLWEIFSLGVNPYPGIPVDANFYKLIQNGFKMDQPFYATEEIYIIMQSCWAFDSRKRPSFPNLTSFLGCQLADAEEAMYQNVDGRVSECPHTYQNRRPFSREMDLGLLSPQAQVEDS

The target of assay [1] is T2, RSK4(Kin.Dom.2-C-terminal) (Homo sapiens, UniProt Q9UK32).
T2 construct: gene RPS6KA6; Kin.Dom.2-C-terminal

A further assay has as its target T3, TGFBR1 (Homo sapiens, UniProt P36897).
T3 sequence (P36897 1-503): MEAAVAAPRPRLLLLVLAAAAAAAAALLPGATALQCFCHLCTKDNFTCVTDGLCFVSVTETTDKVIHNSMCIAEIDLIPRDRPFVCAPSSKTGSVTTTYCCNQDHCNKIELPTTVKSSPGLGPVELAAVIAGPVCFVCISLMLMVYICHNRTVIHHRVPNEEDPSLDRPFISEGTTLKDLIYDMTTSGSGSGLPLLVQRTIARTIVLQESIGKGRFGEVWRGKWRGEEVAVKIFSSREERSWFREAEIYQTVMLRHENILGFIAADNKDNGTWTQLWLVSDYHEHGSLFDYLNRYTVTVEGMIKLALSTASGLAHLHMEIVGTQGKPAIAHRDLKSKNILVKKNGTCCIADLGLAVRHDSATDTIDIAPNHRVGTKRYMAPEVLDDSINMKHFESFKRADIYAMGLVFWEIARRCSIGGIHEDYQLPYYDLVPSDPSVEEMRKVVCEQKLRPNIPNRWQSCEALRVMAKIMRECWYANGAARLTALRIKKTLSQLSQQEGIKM

In a further assay the target is T4, PRKD2 (Homo sapiens, UniProt Q9BZL6).
T4 sequence (Q9BZL6 1-878): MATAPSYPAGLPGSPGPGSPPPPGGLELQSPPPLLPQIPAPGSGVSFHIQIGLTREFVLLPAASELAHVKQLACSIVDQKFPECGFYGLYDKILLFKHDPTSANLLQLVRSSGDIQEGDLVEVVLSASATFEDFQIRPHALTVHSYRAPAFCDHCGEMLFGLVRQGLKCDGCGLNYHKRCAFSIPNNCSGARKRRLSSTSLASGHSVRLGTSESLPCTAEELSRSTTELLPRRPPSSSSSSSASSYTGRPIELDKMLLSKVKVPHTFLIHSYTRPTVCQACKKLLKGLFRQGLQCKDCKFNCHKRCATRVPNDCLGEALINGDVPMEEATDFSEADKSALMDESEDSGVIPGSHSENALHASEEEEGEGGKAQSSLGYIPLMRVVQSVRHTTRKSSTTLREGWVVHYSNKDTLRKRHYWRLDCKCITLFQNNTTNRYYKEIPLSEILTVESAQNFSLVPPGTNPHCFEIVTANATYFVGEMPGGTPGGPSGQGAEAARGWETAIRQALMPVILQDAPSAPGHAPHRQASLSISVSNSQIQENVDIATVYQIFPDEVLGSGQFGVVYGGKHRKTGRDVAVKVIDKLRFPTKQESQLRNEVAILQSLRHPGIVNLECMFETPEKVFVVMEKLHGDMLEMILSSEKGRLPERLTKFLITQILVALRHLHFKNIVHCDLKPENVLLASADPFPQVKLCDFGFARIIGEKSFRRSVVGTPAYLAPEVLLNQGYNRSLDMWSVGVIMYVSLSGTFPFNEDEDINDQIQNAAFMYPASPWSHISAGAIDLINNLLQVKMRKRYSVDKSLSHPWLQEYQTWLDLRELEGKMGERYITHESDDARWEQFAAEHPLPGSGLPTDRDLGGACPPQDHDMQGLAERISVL

[2] abbreviates: read-out: Niraparib (MK-4827) / %Ctrl @ 10000nM.
Setting [3] is: read-out: Olaparib / %Ctrl @ 10000nM.
Setting [4] is: read-out: Rucaparib / %Ctrl @ 10000nM, binding competition, % of control.
Setting [5] is: read-out: Talazoparib (BMN 673) / %Ctrl @ 10000nM.

Where two headings read alike, the source gives them in different places.

Chain of CSNK2A1 (P68400 whole entry): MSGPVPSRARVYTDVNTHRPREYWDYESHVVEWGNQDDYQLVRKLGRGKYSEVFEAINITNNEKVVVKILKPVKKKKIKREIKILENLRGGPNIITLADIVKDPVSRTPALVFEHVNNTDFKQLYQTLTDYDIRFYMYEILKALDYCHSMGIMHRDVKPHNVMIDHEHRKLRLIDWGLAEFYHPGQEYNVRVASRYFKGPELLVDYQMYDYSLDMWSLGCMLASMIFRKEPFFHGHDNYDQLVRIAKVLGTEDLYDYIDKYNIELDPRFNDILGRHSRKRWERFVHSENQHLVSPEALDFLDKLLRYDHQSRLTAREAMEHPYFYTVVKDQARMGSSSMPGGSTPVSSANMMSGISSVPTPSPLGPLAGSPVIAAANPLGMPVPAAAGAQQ
T2 sequence (Q9UK32 whole entry): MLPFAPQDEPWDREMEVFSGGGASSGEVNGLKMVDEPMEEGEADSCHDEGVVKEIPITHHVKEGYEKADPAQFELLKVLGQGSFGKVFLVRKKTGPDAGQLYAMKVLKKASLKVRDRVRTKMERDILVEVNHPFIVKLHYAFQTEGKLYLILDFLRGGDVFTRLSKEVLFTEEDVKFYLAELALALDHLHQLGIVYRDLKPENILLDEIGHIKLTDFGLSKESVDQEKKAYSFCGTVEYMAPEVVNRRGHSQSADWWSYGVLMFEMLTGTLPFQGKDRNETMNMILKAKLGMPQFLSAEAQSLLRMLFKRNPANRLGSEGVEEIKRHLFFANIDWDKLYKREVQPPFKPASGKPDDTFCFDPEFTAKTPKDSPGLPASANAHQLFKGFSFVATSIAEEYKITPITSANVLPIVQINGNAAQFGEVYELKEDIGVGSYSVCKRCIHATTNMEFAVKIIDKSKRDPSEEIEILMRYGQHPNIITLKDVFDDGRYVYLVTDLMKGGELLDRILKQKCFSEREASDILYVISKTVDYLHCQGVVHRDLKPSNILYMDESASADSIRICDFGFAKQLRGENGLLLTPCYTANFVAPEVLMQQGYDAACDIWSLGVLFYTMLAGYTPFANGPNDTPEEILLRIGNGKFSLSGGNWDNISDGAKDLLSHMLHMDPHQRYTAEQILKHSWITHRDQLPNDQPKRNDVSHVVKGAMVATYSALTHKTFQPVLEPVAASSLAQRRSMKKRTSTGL
Chain of RAF1 (P04049 whole entry): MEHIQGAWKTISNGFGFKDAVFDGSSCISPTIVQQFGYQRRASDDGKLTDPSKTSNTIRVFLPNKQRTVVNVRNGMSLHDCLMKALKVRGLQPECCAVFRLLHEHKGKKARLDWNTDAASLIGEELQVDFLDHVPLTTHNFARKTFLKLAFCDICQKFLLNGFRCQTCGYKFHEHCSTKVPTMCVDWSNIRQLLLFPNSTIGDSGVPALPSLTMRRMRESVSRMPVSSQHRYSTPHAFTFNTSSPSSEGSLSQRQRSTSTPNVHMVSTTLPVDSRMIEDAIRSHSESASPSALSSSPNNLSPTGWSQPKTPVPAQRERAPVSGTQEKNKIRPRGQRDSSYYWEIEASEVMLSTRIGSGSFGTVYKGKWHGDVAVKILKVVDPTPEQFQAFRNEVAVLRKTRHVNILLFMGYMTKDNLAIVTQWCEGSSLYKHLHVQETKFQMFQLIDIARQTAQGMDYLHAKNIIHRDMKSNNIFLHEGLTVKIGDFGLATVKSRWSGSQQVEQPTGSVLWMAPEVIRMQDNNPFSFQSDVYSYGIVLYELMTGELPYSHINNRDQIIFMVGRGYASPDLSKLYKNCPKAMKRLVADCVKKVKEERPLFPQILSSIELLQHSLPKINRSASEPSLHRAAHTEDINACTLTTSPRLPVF

With `NC(=O)c1cccc2cn(-c3ccc([C@@H]4CCCNC4)cc3)nc12` [Niraparib], the percent of control binding at 10 µM stood at 93% on RAF1 (setting [2]); 6.8% at CSNK2A1 (setting [2]); 75% at FLT3(K663Q) (setting [2]); 100% in assay [1] (setting [2]); 98% on TGFBR1 (setting [2]); 87% at PRKD2 (setting [2]).
With `O=C(c1cc(Cc2n[nH]c(=O)c3ccccc23)ccc1F)N1CCN(C(=O)C2CC2)CC1` [Olaparib], the percent of control binding at 10 µM at RAF1 (setting [3]) is 89%; at CSNK2A1 (setting [3]), 88%; on FLT3(K663Q) (setting [3]), 88%; in assay [1] (setting [3]), 92%; on TGFBR1 (setting [3]) it was 93%; at PRKD2 (setting [3]), 95%.
Regarding `CNCc1ccc(-c2[nH]c3cc(F)cc4c3c2CCNC4=O)cc1` [Rucaparib], the percent of control binding at 10 µM at RAF1 (setting [4]) came out at 99%; on CSNK2A1 (setting [4]) it was 2.2%; in assay [1] (setting [4]), 82%; on TGFBR1 (setting [4]), 98%; at PRKD2 (setting [4]), 77%. Also, on FLT3(K663Q) (binding competition, % of control), the “Rucaparib / %Ctrl @ 10000nM” value was 93%.
Take `Cn1ncnc1[C@H]1c2n[nH]c(=O)c3cc(F)cc(c23)N[C@@H]1c1ccc(F)cc1` [Talazoparib]: the percent of control binding at 10 µM on RAF1 (setting [5]) came out at 90%; at CSNK2A1 (setting [5]), 98%; at FLT3(K663Q) (setting [5]), 91%; in assay [1] (setting [5]), 97%; at TGFBR1 (setting [5]), 100%; at PRKD2 (setting [5]), 100%.
